In US6737383B1, “Herbicidal oxadiazolidines” (priority 1999, dated 2004):

Columns and labels:
rape = experiment: Test B pre/postemergence rape; type: in vivo, Brassica napus; conditions: for Plant response rating, Rape: scale of 0 to 10 where 0 is no effect and 10 is complete control
In short: (§1)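 Test chemicals in a non-phytotoxic solvent mixture with surfactant were sprayed preemergence onto planted seeds and postemergence onto plants 2 to 18 cm tall (1- to 4-leaf stage). After twelve to sixteen days in a greenhouse, injury was visually rated against untreated controls from 0 (no effect) to 10 (complete control).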

bedstraw = experiment: Test B pre/postemergence bedstraw; type: in vivo, Galium aparine
In short: as §1

sugar beet = experiment: Test B pre/postemergence sugar beet; type: in vivo, Beta vulgaris; conditions: for Plant response rating, Sugarbeets: scale of 0 to 10 where 0 is no effect and 10 is complete control
In short: as §1

pigweed = experiment: Test B pre/postemergence pigweed; type: in vivo, Amaranthus retroflexus; conditions: for Plant response rating, Redroot pigweed: scale of 0 to 10 where 0 is no effect and 10 is complete control
In short: as §1

velvetleaf = experiment: Test B pre/postemergence velvetleaf; type: in vivo, Abutilon theophrasti; conditions: for Plant response rating, Velvetleaf: scale of 0 to 10 where 0 is no effect and 10 is complete control
In short: as §1

blackgrass = experiment: Test B pre/postemergence blackgrass; type: in vivo, Alopecurus myosuroides
In short: as §1

soybean = experiment: Test B pre/postemergence soybean; type: in vivo, Glycine max; conditions: for Plant response rating, Soybean: scale of 0 to 10 where 0 is no effect and 10 is complete control
In short: as §1

surinam grass = experiment: Test B pre/postemergence surinam grass; type: in vivo, Brachiaria decumbens
In short: as §1

bamyardgrass = experiment: Test B flood test barnyardgrass; type: in vivo, Echinochloa crus-galli
In short: (§2)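 Plants were grown to the 2-leaf stage before treatment with test chemical, then held in a greenhouse for twelve to sixteen days. Injury was visually rated against untreated controls on a 0–10 scale, where 0 is no effect and 10 is complete control.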

duck salad = experiment: Test B flood test duck salad; type: in vivo, Heteranthera limosa
In short: as §2

corn = experiment: Test B pre/postemergence corn; type: in vivo, Zea mays
In short: as §1

cocklebur = experiment: Test B pre/postemergence cocklebur; type: in vivo, Xanthium strumarium
In short: as §1

morningglory = experiment: Test B pre/postemergence morningglory; type: in vivo, Ipomoea hederacea; conditions: for Plant response rating, Morningglory: scale of 0 to 10 where 0 is no effect and 10 is complete control
In short: as §1

giant foxtail = experiment: Test B pre/postemergence giant foxtail; type: in vivo, Setaria faberii
In short: as §1

purple nutsedge = experiment: Test B pre/postemergence purple nutsedge; type: in vivo, Cyperus rotundus; conditions: for Plant response rating, Nutsedge: scale of 0 to 10 where 0 is no effect and 10 is complete control
In short: as §1

smallflower flatsedge = experiment: Test B flood test smallflower flatsedge; type: in vivo, Cyperus difformis
In short: as §2

[1] = Postemergence, Rate 250 g/ha, scale 0 to 10
[2] = Preemergence, Rate 250 g/ha, scale 0 to 10, 0 is no effect, 10 is complete control
[3] = Preemergence, Rate 500 g/ha, scale 0 to 10, 0 is no effect, 10 is complete control
[4] = Rate 62 g/ha, Postemergence, scale 0 to 10 (0 no effect, 10 complete control)
[5] = Rate 125 g/ha, Postemergence, scale 0 to 10, 0 is no effect, 10 is complete control
[6] = Preemergence, Rate 125 g/ha, scale of 0 to 10 where 0 is no effect and 10 is complete control
[7] = Postemergence, Rate 500 g/ha, scale of 0 to 10 where 0 is no effect and 10 is complete control
[8] = Preemergence, Rate 62 g/ha, scale of 0 to 10 where 0 is no effect and 10 is complete control
[9] = Rate 62 g/ha, flood test species, Pre-emergence, visual evaluation after twelve to sixteen days
[10] = Rate 125 g/ha, under heading Pre-emergence, flood test species, visual evaluation after twelve to sixteen days
[11] = Rate 250 g/ha, Pre-emergence (flood test species), scale 0 to 10, 0 is no effect, 10 is complete control
[12] = Rate 500 g/ha, Pre-emergence, flood test species, scale 0 to 10 (0 no effect, 10 complete control)

CC(C)N(C(=O)n1oc(=O)n(CC2=NOCC2)c1=O)c1ccc(F)cc1 [Compound 466]
7: Plant response rating, Redroot pigweed (pigweed; Preemergence, Rate 125 g/ha) | Blackgrass plant response rating (blackgrass; [2]) | B. signalgrass plant response rating (surinam grass; [7])
2: Plant response rating, Bedstraw (bedstraw; [6]) | Bedstraw plant response rating (bedstraw; [3]) | Sugarbeets plant response rating (sugar beet; [2]) | Redroot pigweed plant response rating (pigweed; [4]) | Redroot pigweed plant response rating (pigweed; [5]) | Plant response rating, Blackgrass (blackgrass; [8]) | Plant response rating, Soybean (soybean; Preemergence, Rate 125 g/ha) | Soybean plant response rating (soybean; [2]) | B. signalgrass plant response rating (surinam grass; [4]) | B. signalgrass plant response rating (surinam grass; [5]) | Corn plant response rating (corn; [7]) | Morningglory plant response rating (morningglory; [1]) | Morningglory plant response rating (morningglory; [5])
10: Redroot pigweed plant response rating (pigweed; [3]) | Plant response rating, Giant foxtail (giant foxtail; [6]) | Giant foxtail plant response rating (giant foxtail; [2]) | Giant foxtail plant response rating (giant foxtail; [3])
6: B. signalgrass plant response rating (surinam grass; [2])
4: Bedstraw plant response rating (bedstraw; [1]) | Bedstraw plant response rating (bedstraw; [4]) | Sugarbeets plant response rating (sugar beet; [3]) | Velvetleaf plant response rating (velvetleaf; [2]) | Velvetleaf plant response rating (velvetleaf; [3]) | Soybean plant response rating (soybean; [1]) | Soybean plant response rating (soybean; [3]) | Soybean plant response rating (soybean; [4]) | Soybean plant response rating (soybean; [5]) | Corn plant response rating (corn; [3])
5: Plant response rating, Blackgrass (blackgrass; [6])
1: Plant response rating, Redroot pigweed (pigweed; Preemergence, Rate 62 g/ha) | Cocklebur plant response rating (cocklebur; [7])
3: Rape plant response rating (rape; [3]) | Redroot pigweed plant response rating (pigweed; [1]) | B. signalgrass plant response rating (surinam grass; Postemergence, Rate 250 g/ha, scale 0 to 10, 0 no effect, 10 complete control) | Plant response rating, B. signalgrass (surinam grass; [6])
9: Redroot pigweed plant response rating (pigweed; [2]) | Blackgrass plant response rating (blackgrass; [7]) | B. signalgrass plant response rating (surinam grass; [3]) | Giant foxtail plant response rating (giant foxtail; [1]) | Giant foxtail plant response rating (giant foxtail; [7]) | Plant response rating, Giant foxtail (giant foxtail; [8]) | Giant foxtail plant response rating (giant foxtail; [4])
0: Rape plant response rating (rape; [1]) | Plant response rating, Rape (rape; Preemergence, Rate 62 g/ha) | Plant response rating, Rape (rape; Preemergence, Rate 125 g/ha) | Rape plant response rating (rape; [2]) | Rape plant response rating (rape; [4]) | Rape plant response rating (rape; [5]) | Sugarbeets plant response rating (sugar beet; [1]) | Plant response rating, Sugarbeets (sugar beet; Preemergence, Rate 62 g/ha) | Plant response rating, Sugarbeets (sugar beet; Preemergence, Rate 125 g/ha) | Sugarbeets plant response rating (sugar beet; [4]) | Sugarbeets plant response rating (sugar beet; [5]) | Velvetleaf plant response rating (velvetleaf; [1]) | Plant response rating, Velvetleaf (velvetleaf; Preemergence, Rate 62 g/ha) | Plant response rating, Velvetleaf (velvetleaf; Preemergence, Rate 125 g/ha) | Velvetleaf plant response rating (velvetleaf; [4]) | Velvetleaf plant response rating (velvetleaf; [5]) | Plant response rating, Soybean (soybean; Preemergence, Rate 62 g/ha) | Plant response rating, B. signalgrass (surinam grass; [8]) | Plant response rating, Barnyardgrass (0 to 10 scale, 0 is no effect, 10 is complete control) (bamyardgrass; [9]) | Barnyardgrass plant response rating (0 to 10 scale, 0 is no effect, 10 is complete control) (bamyardgrass; [10]) | Barnyardgrass plant response rating (bamyardgrass; [11]) | Barnyardgrass plant response rating (bamyardgrass; [12]) | Plant response rating, Ducksalad (0 to 10 scale, 0 is no effect, 10 is complete control) (duck salad; [9]) | Ducksalad plant response rating (0 to 10 scale, 0 is no effect, 10 is complete control) (duck salad; [10]) | Ducksalad plant response rating (duck salad; [11]) | Ducksalad plant response rating (duck salad; [12]) | Corn plant response rating (corn; [1]) | Plant response rating, Corn (corn; [8]) | Plant response rating, Corn (corn; [6]) | Corn plant response rating (corn; [2]) | Corn plant response rating (corn; [4]) | Corn plant response rating (corn; [5]) | Cocklebur plant response rating (cocklebur; [1]) | Plant response rating, Cocklebur (cocklebur; [8]) | Plant response rating, Cocklebur (cocklebur; [6]) | Cocklebur plant response rating (cocklebur; [2]) | Cocklebur plant response rating (cocklebur; [3]) | Cocklebur plant response rating (cocklebur; [4]) | Cocklebur plant response rating (cocklebur; [5]) | Plant response rating, Morningglory (morningglory; Preemergence, Rate 62 g/ha) | Plant response rating, Morningglory (morningglory; Preemergence, Rate 125 g/ha) | Morningglory plant response rating (morningglory; [2]) | Morningglory plant response rating (morningglory; [3]) | Morningglory plant response rating (morningglory; [4]) | Nutsedge plant response rating (purple nutsedge; [1]) | Plant response rating, Nutsedge (purple nutsedge; Preemergence, Rate 62 g/ha) | Plant response rating, Nutsedge (purple nutsedge; Preemergence, Rate 125 g/ha) | Nutsedge plant response rating (purple nutsedge; [2]) | Nutsedge plant response rating (purple nutsedge; [4]) | Nutsedge plant response rating (purple nutsedge; [5]) | Plant response rating, S. Flatsedge (0 to 10 scale, 0 is no effect, 10 is complete control) (smallflower flatsedge; [9]) | S. Flatsedge plant response rating (0 to 10 scale, 0 is no effect, 10 is complete control) (smallflower flatsedge; [10]) | S. Flatsedge plant response rating (smallflower flatsedge; [11]) | S. Flatsedge plant response rating (smallflower flatsedge; [12])
8: Blackgrass plant response rating (blackgrass; [1]) | Blackgrass plant response rating (blackgrass; [3]) | Blackgrass plant response rating (blackgrass; [4])
